Biological target: NLRP3 (Homo sapiens, UniProt Q96P20)
Assay: THP-1 cell-based NLRP3 activation assay
Set-up: endogenous in cells; host or cells: THP-1 cells (PMA-differentiated, LPS-primed, nigericin-stimulated)
Details: PMA-differentiated THP-1 cells, LPS 100 ng/mL then 10 μM nigericin
Description: THP-1 cells are cultured in complete media (CM) until they reach logarithmic growth and achieve a viability >90%. CM is composed of RPMI-1640 (+Glutamax)/10% fetal bovine serum/55 μM β-mercaptoethanol/pen/strep. Cells are spun down and resuspended to 1,000,000 cells/mL in CM containing either 20 nM or 500 nM PMA. 150,000 cells (150 μL) are then added to each well of a 96-well TC plate and incubated for either 24 hr or 3 hr, respectively, in a standard cell culture incubator (37° C.; 5% CO2). After this incubation, the plate is tilted and media carefully removed. 200 μL of CM containing 100 ng/mL LPS is then added to the wells and the cells incubated an additional 3 hrs. The media is again removed and replaced with Opti-Mem medium containing pre-determined dilutions of test compounds in replicate wells. After a 30 min incubation, 10 μM nigericin (final concentration) in Opti-Mem medium with the corresponding concentration of compound is added to the wells for an additional 1 hr. Positive control wells contain 10 μM nigericin in Opti-Mem in the absence of test compound, while negative control wells contain Opti-Mem only. […] Once supernatants are removed, the relative viability of adherent cells in the 96-well TC plate are determined using a CellTiter-Glo® luminescent cell viability assay (Promega).

Chain of NLRP3 (Q96P20 whole entry): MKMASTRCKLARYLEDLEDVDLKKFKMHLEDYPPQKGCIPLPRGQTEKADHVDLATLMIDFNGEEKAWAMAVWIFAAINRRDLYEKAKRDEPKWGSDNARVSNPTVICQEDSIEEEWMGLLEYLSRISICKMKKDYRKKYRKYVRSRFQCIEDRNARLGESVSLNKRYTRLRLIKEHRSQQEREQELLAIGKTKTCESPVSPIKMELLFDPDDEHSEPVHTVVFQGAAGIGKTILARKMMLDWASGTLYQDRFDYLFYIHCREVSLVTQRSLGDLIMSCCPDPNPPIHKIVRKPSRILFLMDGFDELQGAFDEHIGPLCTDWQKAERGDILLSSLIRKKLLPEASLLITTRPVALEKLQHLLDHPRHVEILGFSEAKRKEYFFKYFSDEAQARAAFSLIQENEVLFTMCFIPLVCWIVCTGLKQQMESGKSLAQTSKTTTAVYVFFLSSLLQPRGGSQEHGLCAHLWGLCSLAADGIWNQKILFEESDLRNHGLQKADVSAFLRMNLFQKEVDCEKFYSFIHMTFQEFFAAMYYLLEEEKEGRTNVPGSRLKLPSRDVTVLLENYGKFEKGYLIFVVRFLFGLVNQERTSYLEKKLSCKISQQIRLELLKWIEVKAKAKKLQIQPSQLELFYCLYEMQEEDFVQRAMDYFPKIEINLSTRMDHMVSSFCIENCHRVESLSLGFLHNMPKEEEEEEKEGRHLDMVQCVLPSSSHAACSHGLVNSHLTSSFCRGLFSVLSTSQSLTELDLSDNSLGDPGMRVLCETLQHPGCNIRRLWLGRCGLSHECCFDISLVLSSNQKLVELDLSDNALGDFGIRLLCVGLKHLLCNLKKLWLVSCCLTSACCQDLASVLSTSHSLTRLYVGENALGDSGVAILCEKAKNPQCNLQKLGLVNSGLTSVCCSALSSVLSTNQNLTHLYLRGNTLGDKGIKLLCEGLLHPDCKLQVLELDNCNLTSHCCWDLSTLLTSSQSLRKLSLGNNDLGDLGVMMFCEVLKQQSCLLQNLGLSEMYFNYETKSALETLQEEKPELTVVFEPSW

Structure (SMILES) | IC50
CCOc1cc(C(=O)N(C)[C@H](CC[N+](C)(C)[O-])c2cccc3cn[nH]c23)ccc1-c1cccc(Cl)c1 [Compound 206] | < 100 nM
CCOc1cc(C(=O)N(C)[C@H](CCNC)c2cncc3cn[nH]c23)ccc1-c1ccccc1 [Compound 193] | < 100 nM
CCOc1cc(C(=O)N(C)[C@H](CO)c2cncc3cn[nH]c23)ccc1-c1cc(C)cc(F)c1 [Compound 003] | < 100 nM
CCOc1cc(C(=O)N(C)[C@H](CCNC)c2cncc3cn[nH]c23)ccc1-c1cc(F)cc(C#N)c1 [Compound 280] | < 100 nM
CCOc1cc(C(=O)N(C)[C@H](c2cncc3cn[nH]c23)C2CN(CC)C2)ccc1-c1cccc(Cl)c1 [Compound 131] | < 100 nM
CCOc1cc(C(=O)N(C)[C@H](CCN(C)C)c2cncc3cn[nH]c23)ccc1-c1cccc(C)c1 [Compound 091] | < 100 nM
CCOc1cc(C(=O)N(C)[C@@H](c2cncc3cn[nH]c23)C2CNC2)ccc1-c1cccc(Cl)c1 [Compound 181] | < 100 nM
CCOc1cc(C(=O)N(C)[C@H](c2cncc3cn[nH]c23)C2CNC2)ccc1-c1cccc(Cl)c1 [Compound 182] | < 100 nM
CCOc1cc(C(=O)N(C)[C@H](CCN(CC)CC)c2cncc3cn[nH]c23)ccc1-c1cccc(F)c1 [Compound 103] | < 100 nM
CCOc1cc(C(=O)N(C)[C@@H](c2cncc3cn[nH]c23)C2CN(C(C)C)C2)ccc1-c1ccccc1 [Compound 179] | < 100 nM
CCOc1cc(C(=O)N(C)[C@H](C[C@H](C)O)c2cncc3cn[nH]c23)ccc1-c1cccc(Cl)c1 [Compound 008] | 1000 to 15000 nM
CCOc1cc(C(=O)N(C)[C@H](CCN(C)C)c2cncc3cn[nH]c23)ccc1-c1cccc(Cl)c1 [Compound 098] | < 100 nM
CCOc1cc(C(=O)N(C)[C@H](CCNC)c2cncc3cn[nH]c23)ccc1-c1cccc(C#N)c1 [Compound 232] | < 100 nM
CCOc1cc(C(=O)N(C)[C@H](CCOC)c2cncc3cn[nH]c23)ccc1-c1cccc(Cl)c1 [Compound 016] | > 15000 nM
CCOc1cc(C(=O)N(C)[C@@H](c2cncc3cn[nH]c23)C2CN(CC)C2)ccc1-c1ccccc1 [Compound 177] | < 100 nM
CCOc1cc(C(=O)N(C)[C@@H](c2cncc3cn[nH]c23)C2CN(CC)C2)ccc1-c1cccc(Cl)c1 [Compound 172] | < 100 nM

Structure (SMILES) | IC50
CCOc1cc(C(=O)N(C)[C@H](CO)c2cncc3cn[nH]c23)ccc1-c1cc(F)cc(F)c1 [Compound 002] | < 100 nM
CCOc1cc(C(=O)N(C)[C@H](CCN(CC)CCF)c2cncc3cn[nH]c23)ccc1-c1cccc(F)c1 [Compound 184] | < 100 nM
CCOc1cc(C(=O)N(C)[C@H](CCN(C)C)c2cccc3cn[nH]c23)ccc1-c1cccc(Cl)c1 [Compound 213] | < 100 nM
CCOc1cc(C(=O)N(C)[C@H](c2cncc3cn[nH]c23)[C@@H]2CCNC2)ccc1-c1ccccc1 [Compound 154] | < 100 nM
CCOc1cc(C(=O)N(C)[C@H](c2cncc3cn[nH]c23)C2CN(C)C2)ccc1-c1cccc(C#N)c1 [Compound 144] | < 100 nM
CCOc1cc(C(=O)N(C)[C@@H](c2cncc3cn[nH]c23)C2CN(C)C2)ccc1-c1ccccc1 [Compound 178] | < 100 nM
CCOc1cc(C(=O)N(C)C(CCN(C)C)c2cccc3cn[nH]c23)ccc1-c1ccccc1 (stereo not drawn) [Compound 135] | < 100 nM
CCOc1cc(C(=O)N(C)[C@H](CCN(C)C)c2cncc3cn[nH]c23)ccc1C1CC1 [Compound 146] | 100 to 500 nM
CCOc1cc(C(=O)N(C)[C@@H](c2cncc3cn[nH]c23)[C@H]2CCNC2)ccc1-c1ccccc1 [Compound 152] | 500 to 1000 nM
CCOc1cccc(C(=O)N(C)[C@H](CCN(C)C)c2cnc(CO)c3cn[nH]c23)c1 [Compound 180] | 500 to 1000 nM
CCOc1cc(C(=O)N(C)[C@H](CCN)c2cncc3cn[nH]c23)ccc1C [Compound 185] | 1000 to 15000 nM
CCOc1cc(C(=O)N(C)[C@H](CCN(C)C)c2cccc3cn[nH]c23)ccc1-c1cc(F)cc(F)c1 [Compound 219] | < 100 nM
CCOc1cc(C(=O)N(CCO)Cc2cncc3cn[nH]c23)ccc1-c1cccc(Cl)c1 [Compound 042] | < 100 nM
CCOc1cc(C(=O)N(C)[C@@H](c2cncc3cn[nH]c23)C2CN(C)C2)ccc1-c1cccc(Cl)c1 [Compound 183] | < 100 nM
CCOc1cc(C(=O)N(C)[C@H](CCNCCCF)c2cncc3cn[nH]c23)ccc1-c1cccc(Cl)c1 [Compound 139] | < 100 nM

Further lines, results first:

IC50 | Structure (SMILES)
500 to 1000 nM | CCOc1cc(C(=O)N(C)[C@@H](CN(C)C)c2cncc3cn[nH]c23)ccc1-c1cccc(F)c1 [Compound 122]
< 100 nM | CCOc1cc(C(=O)N(CCN2CCC(F)(F)C2)Cc2cncc3cn[nH]c23)ccc1-c1cccc(F)c1 [Compound 115]
100 to 500 nM | CCOc1cc(C(=O)N(Cc2cncc3cn[nH]c23)C2CC(N(C)C)C2)ccc1-c1cccc(Cl)c1 (stereo not drawn) [Compound 242]
< 100 nM | CCOc1cc(C(=O)N(C)[C@H](CCN(C)C)c2cnc(C)c3cn[nH]c23)ccc1-c1cccc(F)c1 [Compound 075]
> 15000 nM | CCOc1cc(C(=O)N(Cc2cnc(C)c3cn[nH]c23)C2COC2)ccc1-c1cccc(F)c1 [Compound 054]
< 100 nM | CCOc1cc(C(=O)N(C)[C@H](c2cncc3cn[nH]c23)C2CN(CC)C2)ccc1-c1cccc(F)c1 [Compound 174]
1000 to 15000 nM | CCOc1cc(C(=O)N(Cc2cncc3cn[nH]c23)C2CC(N(C)C)C2)ccc1-c1ccccc1 (stereo not drawn) [Compound 243]
< 100 nM | CCOc1cc(C(=O)N(Cc2ccc(C)c3cn[nH]c23)[C@H]2C[C@@H](N(C)C)C2)ccc1-c1cccc(Cl)c1 [Compound 285]
100 to 500 nM | CCOc1cc(C(=O)N(C)C(c2cncc3cn[nH]c23)C2C[N+](C)([O-])C2)ccc1-c1cccc(F)c1 (stereo not drawn) [Compound 192]
100 to 500 nM | CCOc1cc(C(=O)N(C)[C@H](c2cncc3cn[nH]c23)C2CN(C(C)C)C2)ccc1-c1cccc(F)c1 [Compound 176]
< 100 nM | CCOc1cc(C(=O)N(C)[C@H](CCN2C[C@@H](F)[C@H](F)C2)c2cncc3cn[nH]c23)ccc1-c1cccc(F)c1 [Compound 093]
< 100 nM | CCOc1cc(C(=O)N(C)[C@H](CO)c2cnc(CC)c3cn[nH]c23)ccc1-c1cccc(F)c1 [Compound 033]
< 100 nM | CCOc1cc(C(=O)N(C)[C@@H](CCN(C)C)c2cncc3cn[nH]c23)ccc1-c1cccc(F)c1 [Compound 162]
< 100 nM | CCOc1cc(C(=O)N(Cc2cnc(C)c3cn[nH]c23)[C@H]2C[C@@H](NC)C2)ccc1-c1cccc(F)c1 [Compound 278]
< 100 nM | CCOc1cc(C(=O)N(C)[C@@H](CN(C)C)c2cccc3cn[nH]c23)ccc1-c1cccc(F)c1 [Compound 257]
< 100 nM | CCOc1cc(C(=O)N(Cc2cncc3cn[nH]c23)[C@H]2C[C@@H](N(C)C)C2)ccc1-c1cccc(Cl)c1 [Compound 253]

IC50 | Structure (SMILES)
< 100 nM | CCOc1cc(C(=O)N(Cc2cncc3cn[nH]c23)[C@H]2C[C@@H](NC)C2)ccc1-c1cccc(C#N)c1 [Compound 291]
100 to 500 nM | CCOc1cc(C(=O)N(CCO)Cc2cnc(NC)c3cn[nH]c23)ccc1-c1cccc(C#N)c1 [Compound 044]
< 100 nM | CCOc1cc(C(=O)N(C)[C@H](CO)c2cnc(C)c3cn[nH]c23)ccc1-c1cccc(F)c1 [Compound 017]
< 100 nM | CCOc1cc(C(=O)N(C)[C@H](CN(C)C)c2cncc3cn[nH]c23)ccc1-c1cccc(F)c1 [Compound 121]
< 100 nM | CCOc1cc(C(=O)N(C)[C@@H](c2cncc3cn[nH]c23)C2CNC2)ccc1-c1cccc(F)c1 [Compound 097]
< 100 nM | CCOc1cc(C(=O)N(C)[C@H](c2cnc(C)c3cn[nH]c23)C2CN(C)C2)ccc1-c1cccc(F)c1 [Compound 065]
< 100 nM | CCOc1cc(C(=O)N(C)[C@H](CCN(C)C)c2cnc(C)c3cn[nH]c23)ccc1-c1ccccc1 [Compound 074]
< 100 nM | CCOc1cc(C(=O)N(C)[C@H](CCN2CCC2)c2cccc3cn[nH]c23)ccc1-c1cccc(F)c1 [Compound 217]
< 100 nM | CCOc1cc(C(=O)N(CCN2CCC(F)CC2)Cc2cncc3cn[nH]c23)ccc1-c1cccc(F)c1 [Compound 110]
500 to 1000 nM | CCOc1cc(C(=O)N(C)[C@H](CN2CCC2)c2cncc3cn[nH]c23)ccc1-c1cccc(F)c1 [Compound 123]
< 100 nM | CCOc1cc(C(=O)N(C)[C@H](CN(C)C)c2cnc(CO)c3cn[nH]c23)ccc1-c1cccc(F)c1 [Compound 188]
< 100 nM | Cc1ncc([C@@H](CO)N(C)C(=O)c2ccc(-c3cccc(F)c3)c(OC3CC3)c2)c2[nH]ncc12 [Compound 022]
100 to 500 nM | CCOc1cc(C(=O)N(Cc2cncc3cn[nH]c23)[C@H]2CC[C@@H]2N(C)C)ccc1-c1cccc(Cl)c1 [Compound 288]
100 to 500 nM | CCOc1cc(C(=O)N(C)[C@H](CO)c2cnc(C)c3cn[nH]c23)ccc1-c1ccccc1 [Compound 020]
< 100 nM | CCOc1cc(C(=O)N(CCN2C[C@H](F)C[C@H](F)C2)Cc2cncc3cn[nH]c23)ccc1-c1cccc(F)c1 [Compound 106]
100 to 500 nM | CCOc1cc(C(=O)N(Cc2cncc3cn[nH]c23)C2CC(NC)C2)ccc1-c1cccc(F)c1 (stereo not drawn) [Compound 235]
